Question: Which melting point does the source give for `CC(C)N(c1ccc(C(=O)O)cc1)c1nc(-c2ccc(OCc3ccc(C4CCCCC4)cc3)cc2)cs1` [Example 24, 4-(N-(4-(4-(4-cyclohexylbenzyloxy)phenyl)-2-thiazolyl)-N-isopropylamino)benzoic acid] here?
Answer: The melting point was 238 to 240 °C.

Question: For `O=C(O)c1ccc(N(CC2CCCCC2)c2nc(-c3ccc(OCc4ccc(C5CCCCC5)cc4)cc3)cs2)cc1` [Example 25, 4-(N-(4-(4-(4-cyclohexylbenzyloxy)phenyl)-2-thiazolyl)-N-cyclohexylmethylamino)benzoic acid], which melting point is on record?
Answer: Its melting point is 230 °C (dec.).

Question: With `O=C(O)CCCN(c1ccc(C(=O)O)cc1)c1nc(-c2ccc(OCc3ccc(C4CCCCC4)cc3)cc2)cs1` [Example 26, 4-(N-(3-carboxypropyl)-N-(4-(4-(4-cyclohexylbenzyloxy)phenyl)-2-thiazolyl)amino)benzoic acid] as the molecule, how does the melting point read?
Answer: Its melting point is 230 °C (dec.).

Question: With `O=C(O)c1cccc(Nc2nc(-c3ccc(NC(=O)c4ccc(C5CCCCC5)cc4)cc3)cs2)c1` [Example 27, 3-(4-(4-(4-cyclohexylbenzoylamino)phenyl)-2-thiazolylamino)benzoic acid] as the molecule, how does the melting point read?
Answer: Its melting point is 230 °C (dec.).

Question: For `CC(C)N(c1cccc(C(=O)O)c1)c1nc(-c2ccc(NC(=O)c3ccc(C4CCCCC4)cc3)cc2)cs1` [Example 28, 3-(N-(4-(4-(4-cyclohexylbenzoylamino)phenyl)-2-thiazolyl)-N-isopropylamino)benzoic acid], which melting point is on record?
Answer: Its melting point is 230 °C (dec.).

Question: Which melting point does the source give for `CC(C)N(c1ccc(C(=O)[O-])cc1)c1nc(-c2ccc(OCc3ccc(C4CCCCC4)cc3)cc2)cs1.[Na+]` [Example 34, sodium 4-(N-(4-(4-(4-cyclohexylbenzyloxy)phenyl)-2-thiazolyl)-N-isopropylamino)benzoate] here?
Answer: The melting point was 230 °C (dec.).

Question: With `CC(C)N(c1ccc(C(=O)[O-])cc1)c1nc(-c2ccc(NC(=O)c3ccc(N4CCN(C)CC4)cc3)cc2)cs1.[Na+]` [Example 37, sodium 4-(N-isopropyl-N-(4-(4-(4-(4-methyl-1-piperazinyl)benzoylamino)phenyl)-2-thiazolyl)amino)benzoate] as the molecule, how does the melting point read?
Answer: The melting point was 230 °C (dec.).

Question: With `CC(C)N(c1ccc(C(=O)O)c(Cl)c1)c1nc(-c2ccc(NC(=O)c3ccc(C4CCCCC4)cc3)cc2)cs1` [Example 38, 2-chloro-4-(N-(4-(4-(4-cyclohexylbenzoylamino)phenyl)-2-thiazolyl)-N-isopropylamino)benzoic acid] as the molecule, how does the melting point read?
Answer: Its melting point is 220 °C (dec.).

Question: With `CC(C)N(c1ccc(C(=O)O)c(Cl)c1)c1nc(-c2ccc(NC(=O)c3ccc(N4CCN(C)CC4)cc3)cc2)cs1` [Example 41, 2-chloro-4-(N-isopropyl-N-(4-(4-(4-(4-methyl-1-piperazinyl)benzoylamino)phenyl)-2-thiazolyl)amino)benzoic acid] as the molecule, how does the melting point read?
Answer: The melting point was 220 °C (dec.).

Question: For `CC(C)(c1ccc(C(=O)O)cc1)c1nc(-c2ccc(OCc3ccc(C4CCCCC4)cc3)cc2)cs1` [Example 42, 4-(1-(4-(4-(4-cyclohexylbenzyloxy)phenyl)-2-thiazolyl)-1-methylethyl)benzoic acid], which melting point is on record?
Answer: The melting point was 219 to 221 °C.

Question: With `CC(C)(c1ccc(C(=O)O)cc1)c1nc(-c2ccc(NC(=O)c3ccc(C4CCCCC4)cc3)cc2)cs1` [Example 43, 4-(1-(4-(4-(4-cyclohexylbenzoylamino)phenyl)-2-thiazolyl)-1-methylethyl)benzoic acid] as the molecule, how does the melting point read?
Answer: The melting point was 262 to 264 °C.

Question: With `CC(C)(c1ccc(C(=O)O)cc1)c1nc(-c2ccc(NC(=O)c3ccc(N4CCOCC4)cc3)cc2)cs1` [Example 44, 4-(1-methyl-1-(4-(4-(4-morpholinobenzoylamino)phenyl)-2-thiazolyl)ethyl)benzoic acid] as the molecule, how does the melting point read?
Answer: Its melting point is 290 °C (dec.).

Question: Which melting point does the source give for `CC(C)(c1ccc(C(=O)O)cc1)c1nc(-c2ccc(NC(=O)c3ccc(N4CCCCC4)cc3)cc2)cs1` [Example 45, 4-(1-methyl-1-(4-(4-(4-piperidinobenzoylamino)phenyl)-2-thiazolyl)ethyl)benzoic acid] here?
Answer: The melting point was 268 to 271 °C.

Question: With `CC(C)N(c1ccc(C(=O)O)cc1)c1nc(-c2ccc(NC(=O)CCCC3CCCCC3)cc2)cs1` [Example 46, 4-(N-(4-(4-(4-cyclohexylbutyrylamino)phenyl)-2-thiazolyl)-N-isopropylamino)benzoic acid] as the molecule, how does the melting point read?
Answer: The melting point was 230 °C (dec.).

Question: Which melting point does the source give for `CC(C)(C)c1ccc(COc2ccc(-c3csc(Cc4ccc(C(=O)O)cc4)n3)cc2)cc1` [Example 47, 4-(4-(4-(4-tert-butylbenzyloxy)phenyl)-2-thiazolylmethyl)benzoic acid] here?
Answer: The melting point was 223 to 228 °C.

Question: Which melting point does the source give for `O=C(O)c1ccc(Cc2nc(-c3ccc(OCc4ccc(C5CCCCC5)cc4)cc3)cs2)cc1` [Example 48, 4-(4-(4-(4-cyclohexylbenzyloxy)phenyl)-2-thiazolylmethyl)benzoic acid] here?
Answer: Its melting point is 235 to 238 °C.

Question: With `O=C(O)c1ccc(COc2ccc(-c3csc(Cc4ccc(C(=O)O)cc4)n3)cc2)cc1` [Example 49, 4-(4-(4-(4-carboxybenzyloxy)phenyl)-2-thiazolylmethyl)benzoic acid] as the molecule, how does the melting point read?
Answer: The melting point was 270 °C (dec.).

Question: For `CC(C)N(c1ccc(OCC(=O)O)cc1)c1nc(-c2ccc(NC(=O)C3CCCCC3)cc2)cs1` [Example 50, (4-(N-(4-(4-(cyclohexanecarbonylamino)phenyl)-2-thiazolyl)-N-isopropylamino)phenoxy)acetic acid], which melting point is on record?
Answer: The melting point was 225 °C (dec.).

Question: Which melting point does the source give for `CC(C)N(c1ccc(OCC(=O)O)cc1)c1nc(-c2ccc(NC(=O)c3ccc(C4CCCCC4)cc3)cc2)cs1` [Example 51, (4-(N-(4-(4-(4-cyclohexylbenzoylamino)phenyl)-2-thiazolyl)-N-isopropylamino)phenoxy)acetic acid] here?
Answer: Its melting point is 240 °C (dec.).

Question: With `CC(C)N(c1nc(-c2ccc(NC(=O)c3ccc(C4CCCCC4)cc3)cc2)cs1)c1c(F)c(F)c(C(=O)O)c(F)c1F` [Example 52, 4-(N-(4-(4-(4-cyclohexylbenzoylamino)phenyl)-2-thiazolyl)-N-isopropylamino)-2,3,5,6-tetrafluorobenzoic acid] as the molecule, how does the melting point read?
Answer: The melting point was 153 to 157 °C.

Question: For `CC(C)N(c1ccc(OCC(=O)O)cc1)c1nc(-c2ccc(NC(=O)c3ccc(N4CCCCC4)cc3)cc2)cs1` [Example 53, (4-(N-isopropyl-N-(4-(4-(4-piperidinobenzoylamino)phenyl)-2-thiazolyl)amino)phenoxy)acetic acid], which melting point is on record?
Answer: The melting point was 220 °C (dec.).

Question: With `CC(C)N(c1ccc(OCC(=O)O)cc1)c1nc(-c2ccc(NC(=O)c3ccc(N4CCOCC4)cc3)cc2)cs1` [Example 54, (4-(N-isopropyl-N-(4-(4-(4-morpholinobenzoylamino)phenyl)-2-thiazolyl)amino)phenoxy)acetic acid] as the molecule, how does the melting point read?
Answer: Its melting point is 250 °C (dec.).

Question: With `CC(C)N(c1ccc(OCC(=O)O)cc1)c1nc(-c2ccc(NC(=O)c3cc(Cl)cc(Cl)c3)cc2)cs1` [Example 56, (4-(N-(4-(4-(3,5-dichlorobenzoylamino)phenyl)-2-thiazolyl)-N-isopropylamino)phenoxy)acetic acid] as the molecule, how does the melting point read?
Answer: The melting point was 192 to 194 °C.

Question: Which melting point does the source give for `CC(C)N(c1ccc(OCC(=O)O)cc1)c1nc(-c2ccc(NC(=O)c3ccc(N4CCCCC4)nc3)cc2)cs1` [Example 57, (4-(N-isopropyl-N-(4-(4-(2-piperidino-5-pyridinecarbonylamino)phenyl)-2-thiazolyl)amino)phenoxy)acetic acid] here?
Answer: The melting point was 237 to 240 °C.

Question: With `CC(C)N(Cc1ccc(C(=O)O)cc1)c1nc(-c2ccc(NC(=O)c3ccc(C4CCCCC4)cc3)cc2)cs1` [Example 61, 4-((N-(4-(4-(4-cyclohexylbenzoylamino)phenyl)-2-thiazolyl)-N-isopropylamino)methyl)benzoic acid] as the molecule, how does the melting point read?
Answer: The melting point was 250 °C (dec.).

Question: With `CC(C)N(Cc1ccc(C(=O)O)cc1)c1nc(-c2ccc(NC(=O)c3ccc(N4CCCCC4)cc3)cc2)cs1` [Example 62, 4-((N-isopropyl-N-(4-(4-(4-piperidinobenzoylamino)phenyl)-2-thiazolyl)amino)methyl)benzoic acid] as the molecule, how does the melting point read?
Answer: Its melting point is 234 °C (dec.).

Question: With `CC(C)N(Cc1ccc(C(=O)O)cc1)c1nc(-c2ccc(NC(=O)c3ccc(N4CCOCC4)cc3)cc2)cs1` [Example 63, 4-((N-isopropyl-N-(4-(4-(4-morpholinobenzoylamino)phenyl)-2-thiazolyl)amino)methyl)benzoic acid] as the molecule, how does the melting point read?
Answer: Its melting point is 250 °C (dec.).

Question: For `CC(C)N(Cc1ccc(C(=O)O)cc1)c1nc(-c2ccc(NC(=O)c3ccc(-c4ccccc4)cc3)cc2)cs1` [Example 64, 4-((N-(4-(4-(4-biphenylcarbonylamino)phenyl)-2-thiazolyl)-N-isopropylamino)methyl)benzoic acid], which melting point is on record?
Answer: The melting point was 250 °C (dec.).

Question: Which melting point does the source give for `CC(C)N(Cc1ccc(C(=O)O)cc1)c1nc(-c2ccc(OCc3ccc(C4CCCCC4)cc3)cc2)cs1` [Example 65, 4-((N-(4-(4-(4-cyclohexylbenzyloxy)phenyl)-2-thiazolyl)-N-isopropylamino)methyl)benzoic acid] here?
Answer: The melting point was 233 to 234 °C.

Question: For `O=C(O)c1ccc(Cc2nc(-c3ccc(NC(=O)c4ccc(C5CCCCC5)cc4)cc3)cs2)cc1` [Example 68, 4-(4-(4-(4-cyclohexylbenzoylamino)phenyl)-2-thiazolylmethyl)benzoic acid], which melting point is on record?
Answer: Its melting point is 230 °C (dec.).

Question: For `CC(C)Oc1ccc(C(=O)Nc2ccc(-c3csc(Cc4ccc(C(=O)O)cc4)n3)cc2)cc1` [Example 69, 4-(4-(4-(4-isopropoxybenzoylamino)phenyl)-2-thiazolylmethyl)benzoic acid], which melting point is on record?
Answer: Its melting point is 230 °C (dec.).

Question: Which melting point does the source give for `O=C(O)c1ccc(Cc2nc(-c3ccc(NC(=O)c4ccc(-n5cccc5)cc4)cc3)cs2)cc1` [Example 70, 4-(4-(4-(4-(1-pyrrolyl)benzoylamino)phenyl)-2-thiazolylmethyl)benzoic acid] here?
Answer: Its melting point is 220 °C (dec.).

Question: Which melting point does the source give for `O=C(O)c1ccc(C(=O)c2nc(-c3ccc(OCc4ccc(C5CCCCC5)cc4)cc3)cs2)cc1` [Example 71, 4-(4-(4-(4-cyclohexylbenzyloxy)phenyl)-2-thiazolecarbonyl)benzoic acid] here?
Answer: Its melting point is 259 to 261 °C.

Question: With `O=C(O)c1ccc(Nc2nc(-c3ccc(OCc4ccc(C5CCCCC5)cc4)cc3)cs2)c(OCCC2CCCCC2)c1` [Example 72, 4-(4-(4-(4-cyclohexylbenzyloxy)phenyl)-2-thiazolylamino)-3-(2-cyclohexylethoxy)benzoic acid] as the molecule, how does the melting point read?
Answer: The melting point was 230 °C (dec.).

Question: For `O=C(O)c1ccc(Nc2nc(-c3ccc(OCc4ccc(C5CCCCC5)cc4)cc3)cs2)c(OCc2ccccc2)c1` [Example 73, 3-benzyloxy-4-(4-(4-(4-cyclohexylbenzyloxy)phenyl)-2-thiazolylamino)benzoic acid], which melting point is on record?
Answer: The melting point was 230 °C (dec.).

Reference: US7163952B2, “Azole compound and medicinal use thereof” (Japan Tobacco Inc., priority 2001, dated 2007)
